From patent US6090786A, “Serine proteases, their activity and their synthetic inhibitors” (priority 1994, dated 2000) come the findings set out here.

Data set [1] in a line: Functional stability of DPPIV inhibitors in the reaction medium (buffer). Type of data set: physicochemical. Conditions: 50 mM TRIS buffer pH 8.3, 37° C. On the procedure:
(§1) To determine the functional stability of the inhibitors in the reaction medium, a 10 mM stock solution in DMSO was diluted 50-fold in 50 mM TRIS buffer pH 8.3 and incubated at 37° C. To determine the functional stability in plasma, a 50 mM stock solution in DMSO was diluted 50-fold in fresh or freshly frozen citrated plasma from a healthy donor and incubated at 37° C. At specific time intervals an aliquot was withdrawn, added to an equal volume of DPPIV diluted in buffer or to an equal volume of plasma and the kinetics of inactivation were determined as described under b). The reduction in observed pseudo-first order rate constant is a measure for the amount of functional inhibitor lost during the incubation and allowed to estimate the half-life of the inhibitors in buffer and plasma. The following table lists the results.

Data set [2] is described as follows: In vivo testing in rabbits, single intravenous injection. On the procedure:
In order to test the effect of the inhibitors in vivo rabbits were injected with the inhibitor and their DPPIV activity was tested using Gly-Pro-4-Methoxy-2-naphthylamide as the substrate.
4 Rabbits received a single 5 ml intravenous-(ear vein) injection of physiological saline cobtaining 0 (control), 1 mg, 5 mg and 10 mg AB 3, respectively. Blood samples were taken from the central ear artery 5 min before injection and at different points of time, directly after the injection, after 4 hrs and after 1, 2, 3, 6 and 13 days.
Counts of white and red blood cells and platelets, serum DPPIV activity and serum bilirubin, GOT, GPT, GT, LDH, creatinine, Na, K, CK and urea were evaluated.

Data set [3] can be described thus: Functional stability of DPPIV inhibitors in human citrated plasma. Type of data set: in vitro ADME. Conditions: 37° C. On the procedure:
as §1

Turning to `Cl.O=C([C@@H]1CCCN1)N1CCCC1P(=O)(Oc1ccccc1)Oc1ccccc1` (stereo partly drawn) [Pro-Pro^P -(OPh)2, Diphenyl (S,R)-1-[(S)-prolyl]pyrrolidine-2-phophonate hydrochloride], the t1/2 in buffer in data set [1] was determined as 3.5 ± 0.1 h. The “death of the animal” value in data set [2] (rabbit receiving 10 mg i.v.) is “died after 11 days”. Further, in data set [2] (rabbit receiving 10 mg i.v., at day 6), the “biochemical and hematological parameters” value is listed as “normal”. Moreover, in data set [2] (rabbits, single i.v. injection of 1 mg, 5 mg or 10 mg, up to 13 days, DPPIV enzyme activity excepted), the “cell counts (white and red blood cells, platelets) and serum biochemical parameters” value is recorded as “No differences”. The t1/2 in plasma in data set [3] is recorded as 4.1 ± 0.3 h.
